Source: patent US20210380596A1, “UPADACITINIB CRYSTAL FORM AND PREPARATION METHOD THEREFOR AND USE THEREOF” (CRYSTAL PHARMACEUTICAL (SUZHOU) CO., LTD., priority 2019, published 2021)
Converted amounts (≈) assume the structure as drawn. “And” between values parts separate entries of the source, which are not always exact repeats. Identical values can stand only once. “Also recorded” adds a separate entry of the source. Values belong to the compound of their own block, whether it stands above or below them.

Tests used:
[1] = Kinetic solubility of Form CSII (saturated solutions, HPLC); assay type: physicochemical
Procedure: The method parameters of kinetic solubility test in the present disclosure are as follows:
A certain amount of Form CSII was suspended into pH=7.4 PBS, pH=6.5 FaSSIF and pH=5.0 FeSSIF at 25° C. or 37° C. to obtain saturated solutions. After equilibration for 24 h, 30 h and 48 h, the suspensions were filtered to obtain saturated solutions, and concentration was determined by HPLC.

[2] = Stability of Form CSII drug substance on storage (XRPD, HPLC purity); assay type: physicochemical; conditions: for Chemical purity during storage: drug substance
Procedure: X-ray powder diffraction patterns in the present disclosure were acquired by a Bruker D2 PHASER or Bruker D8 Discover X-ray powder diffractometer. The parameters of the X-ray powder diffraction method of the present disclosure are as follows:
The method parameters for relative substances test in the present disclosure are as follows:
A certain amount of Form CSII sample was stored at different conditions of 4° C., 25° C./60% RH, 40° C./75% RH and 60° C./75% RH. Crystalline form was checked by XRPD before and after storage.

[3] = Mechanical stability (tableting at 10 kN, manual grinding; XRPD); assay type: physicochemical
Procedure: 30 mg of Form CSII was weighed into the dies of a Φ8 mm round tooling and tableted by ENERPAC manual tablet press with 10 kN pressure. Crystalline form before and after tableting were checked by XRPD. […] 10 mg of Form CSII was weighed into a mortar and ground manually for 5 min. The crystalline form before and after grinding were checked by XRPD.

[4] = Particle size distribution (Mastersizer 3000, wet mode); assay type: physicochemical; conditions: Isopar G containing 0.2% lecithin
Procedure: Proton nuclear magnetic resonance (H NMR) spectrum data were collected from a Bruker Avance II DMX 400M HZ NMR spectrometer. 1-5 mg of sample was weighed and dissolved in 0.5 mL of deuterated dimethyl sulfoxide to obtain a solution with a concentration of 2-10 mg/mL. The particle size distribution data in the present disclosure were acquired by a Mastersizer 3000 laser particle size analyzer of Malvern. The test is carried out in wet mode with a Hydro MV dispersing device, and the dispersion medium is Isopar G. The method parameters of the laser particle size analyzer are as follows:
The mixtures were mixed thoroughly and transferred into the Hydro MV. The measurement was started when the shading rate is in an appropriate position.

[5] = Flowability (compressibility index / Carr index); assay type: physicochemical; conditions: for Bulk density (ρ0): 5-mL measuring cylinder, 500 mg; for Flowability: criteria of ICH Q4B Annex 13; for Tapped density (ρf): tapping times: 1250
Procedure: Compressibility index or Carr index is usually utilized to evaluate the flowability of powder and granules during the drug product process. Compressibility index test method is as follows: a certain amount of powder was added into a measuring cylinder and bulk volume was recorded. Then the powder was tapped to make it in the tightest state and the tapped volume was recorded. The bulk density ρ0 and tapped density pf were calculated. The compressibility index was calculated according to c=(ρf−ρ0)/ρf.
Equipment: ZS-2E tap density tester.
Parameter: 5-mL measuring cylinder, 500 mg, tapping times: 1250.

[6] = Compressibility (tablet hardness and tensile strength); assay type: physicochemical; conditions: for Diameter / Thickness: 80 mg, Φ6 mm tooling, 10 kN, after 24 h, tablets 1-3; for Average tensile strength: mean of three tablets
Procedure: An ENERPAC manual tablet press was used for compression. […] Until complete elastic recovery, hardness (H) was tested with an intelligent tablet hardness tester. Diameter (D) and thickness (L) were tested with a caliper. Tensile strength of the powder was calculated with the following formula: T=2H/πDL. Under a certain force, the greater the tensile strength, the better the compressibility.

[7] = Adhesiveness (material sticking to the punch); assay type: physicochemical; conditions: 30 mg, Φ8 mm tooling, 10 kN held 30 s
Procedure: The amount of material sticking to the punch was weighed. The compression was repeated twice and the average amount of material sticking to the punch during the compression were recorded.

[8] = Stability of Form CSII in drug product (formulation process and storage); assay type: physicochemical; conditions: formulation and process of Tables 14 and 15
Procedure: Crystalline form before and after tableting were checked by XRPD.
The drug products of Form CSII were stored under 25° C./60% RH and 40° C./75% RH in closed dishes with 1 g of desiccant for 3 months to evaluate the stability of Form CSII in drug product.

[9] = FaSSIF, 37° C.; disclosed in WO2017066775A1; cited from earlier work
[10] = FaSSIF pH 6.5, thermodynamic from solid, pH=6.5 FaSSIF, 37° C.
[11] = FeSSIF pH 5.0, thermodynamic from solid, pH=5.0 FeSSIF, 37° C.
[12] = PBS pH 7.4, aqueous buffer, thermodynamic from solid, pH=7.4 PBS, 25° C.
[13] = 25° C./60% RH, closed, 3 months
[14] = 40° C./75% RH, closed, 3 months
[15] = listed as Form C in WO2017066775A1

solubility at 24 h [1, 10]: 740 µg/mL (≈ 1950 µM)
solubility at 30 h [1, 10]: 760 µg/mL (≈ 2000 µM)
solubility at 48 h [1, 10]: 830 µg/mL (≈ 2180 µM)
solubility at 24 h [1, 11]: 1400 µg/mL (≈ 3680 µM)
solubility at 30 h [1, 11]: 1400 µg/mL (≈ 3680 µM)
solubility at 48 h [1, 11]: 1500 µg/mL (≈ 3940 µM)
solubility at 24 h [1, 12]: 730 µg/mL (≈ 1920 µM)
solubility at 30 h [1, 12]: 740 µg/mL (≈ 1950 µM)
solubility at 48 h [1, 12]: 720 µg/mL (≈ 1890 µM)
Solubility compared with Form C ([1]; pH=7.4 PBS, FaSSIF and FeSSIF): higher
Time kept stable (crystalline state unchanged) ([2]; 4° C.): at least 3 months
Purity ([2]; 4° C., closed, 3 months): 99.41%
Solid form ([2]; 4° C., closed, 3 months): Form CSII
Purity [2, 13]: 99.42%
Solid form [2, 13]: Form CSII
Purity ([2]; 25° C./60% RH, open, 3 months): 99.43%
Solid form ([2]; 25° C./60% RH, open, 3 months): Form CSII
Purity [2, 14]: 99.42%
Solid form [2, 14]: Form CSII
Purity ([2]; 40° C./75% RH, open, 3 months): 99.44%
Solid form ([2]; 40° C./75% RH, open, 3 months): Form CSII
Purity ([2]; 60° C./75% RH, closed, 1 month): 99.43%
Solid form ([2]; 60° C./75% RH, closed, 1 month): Form CSII
Purity ([2]; 60° C./75% RH, open, 1 month): 99.48%
Solid form ([2]; 60° C./75% RH, open, 1 month): Form CSII
Purity ([2]; Initial): 99.35%
Solid form ([2]; Initial): Form CSII
Chemical purity during storage ([2]; 25° C./60% RH): above 99%
Chemical purity during storage ([2]; 40° C./75% RH and 60° C./75% RH): above 99%
Crystallinity after tableting ([3]; 10 kN pressure): remained basically unchanged
Crystalline state after tableting ([3]; 10 kN pressure, Φ8 mm round tooling): does not change
Crystallinity after grinding ([3]; ground manually for 5 min): remained basically unchanged
Particle size distribution [4]: uniform
Bulk density (ρ0) [5]: 0.3295 g/mL
Flowability [5]: Excellent (≤10)
Tapped density (ρf) [5]: 0.3548 g/mL
Diameter [6]: 6.05 mm and 6.04 mm and 6.03 mm
Thickness [6]: 2.35 mm and 2.16 mm and 2.12 mm
Average tensile strength [6]: 0.88 MPa
Average amount of material sticking to the punch [7]: 0.16 mg
Crystalline form in the formulation process (before and after tableting, XRPD) [8]: stable
Structure (SMILES): CC[C@@H]1CN(C(=O)NCC(F)(F)F)C[C@@H]1c1cnc2cnc3[nH]ccc3n12 [Form CSII, (3S,4R)-3-ethyl-4-(3H-imidazo[1,2-a]pyrrolo [2,3-e]pyrazin-8-yl)-N-(2,2,2-trifluoroethyl) pyrrolidine-1-carboxamide]
Crystalline state after grinding ([3]; ground manually for 5 min): does not change; also recorded: doesn't change

Bulk density (ρ0) [5, 15]: 0.3611 g/mL
Flowability [5, 15]: Very poor (32-37)
Tapped density (ρf) [5, 15]: 0.5618 g/mL
Diameter [6, 15]: 6.00 mm and 6.01 mm
Thickness [6, 15]: 2.14 mm and 2.18 mm and 2.07 mm
Average tensile strength [6, 15]: 0.69 MPa
Average amount of material sticking to the punch [7, 15]: 0.21 mg
Structure (SMILES): CC[C@@H]1CN(C(=O)NCC(F)(F)F)C[C@@H]1c1cnc2cnc3[nH]ccc3n12 [Form C, (3S,4R)-3-ethyl-4-(3H-imidazo[1,2-a]pyrrolo [2,3-e]pyrazin-8-yl)-N-(2,2,2-trifluoroethyl) pyrrolidine-1-carboxamide, reference compound]
Solubility [9]: 220 µg/mL (≈ 578 µM)
